Earlier results as cited in US20100216994A1, “USE OF NOVEL COMPOUND HAVING AFFINITY FOR AMYLOID, AND PROCESS FOR PRODUCTION OF THE SAME” (NIHON MEDI-PHYSICS CO., LTD., priority 2007, published 2010).

Details: [^11C]-labeled, rats; cited from earlier work

CNc1ccc(/C=C/c2ccc(O)cc2)cc1 [SB-13, (E)-4-methylamino-4′-hydroxystilbene]
clearance from normal tissues: it cannot be said that the clearance is sufficiently fast
